The test system of data set [1] is Mus musculus. Description: Acute toxicity in mouse at 5 mg/kg, ip after 6 days. The data set is classed as organism-based. Also noted: dose 5 mg/kg, route intraperitoneal. To be noted: in vivo, 144 h.
Data set [2] concerns Mus musculus. Description: Acute toxicity in mouse at 125 mg/kg, ip after 6 days. To be noted: in vivo, 144 h. Also noted: dose 125 mg/kg, route intraperitoneal. The data set is classed as organism-based.
Data set [3] can be described thus: Toxicity to mouse RBC assessed as hemolytic activity at 100 uM. It counts as cell-based, Erythrocyte. The settings on record: red blood cells, read-out: Activity.
Data set [4] relates to Mus musculus. Description: Acute toxicity in mouse at 25 mg/kg, ip after 6 days. Also noted: dose 25 mg/kg, route intraperitoneal. The settings on record: in vivo, 144 h. It counts as organism-based.
For data set [5], the system named is Mycobacterium. Description: Antibacterial activity against Mycobacterium ranae ATCC 110. It counts as functional.
Data set [6] has as its system Salmonella typhimurium. Description: Antibacterial activity against Salmonella Typhimurium ATCC 13311. It counts as functional, Salmonella enterica subsp. enterica serovar Typhimurium. The settings on record: Salmonella enterica.
Data set [7] can be described thus: Toxicity to mouse RBC assessed as hemolytic activity at 25 uM. It counts as cell-based, Erythrocyte. To be noted: red blood cells, read-out: Activity.
Data set [8] deals with Staphylococcus aureus. Description: Antibacterial activity against methicillin/gentamicin/tetracycline resistant Staphylococcus aureus ATCC 33592. The data set is classed as functional.
For data set [9], the system named is Bacillus subtilis. Description: Antibacterial activity against Bacillus subtilis ATCC 43223. The data set is classed as functional.
Data set [10] concerns Mus musculus. Description: Effect on wound healing in CD1 mouse skin at 100 ug applied topically after 5 days. It counts as functional.
For data set [11], the system named is Mus musculus. As to the kind of experiment: Effect on wound healing in CD1 mouse skin at 100 ug applied topically after 3 days. It counts as functional.
The test system of data set [12] is Mus musculus. As to the kind of experiment: Effect on wound healing in CD1 mouse skin at 100 ug applied topically after 11 days. The data set is classed as functional.
The subject of data set [13] is Mus musculus. Description: Effect on wound healing in CD1 mouse skin at 100 ug applied topically after 7 days. It counts as functional.
Data set [14] has as its system Mus musculus. As to the kind of experiment: Effect on wound healing in CD1 mouse skin at 100 ug applied topically after 9 days. The data set is classed as functional.
The subject of data set [15] is Mus musculus. As to the kind of experiment: Effect on wound healing in CD1 mouse skin at 100 ug applied topically. The data set is classed as functional.
For data set [16], the system named is Bacillus subtilis. As to the kind of experiment: Antibacterial activity against Bacillus subtilis ATCC 43223 at 100 uM. The data set is classed as functional, organism-based.
The test system of data set [17] is Staphylococcus aureus. Description: Antibacterial activity against methicillin/gentamicin/tetracycline resistant Staphylococcus aureus ATCC 33592 at 100 uM. The data set is classed as functional, organism-based.

SMILES strings stand for the structures. Converted amounts (≈) assume the structure as drawn. The source made the active and inactive calls. The rule behind the calls is not given here. Non-standard residues stand in square brackets, D forms with d. Residues, ends and D or L forms follow the SMILES beside them. ξ: configuration not given here. Pro(3ξ,4ξ-(CH2)4) = O=C(O)[C@H]1NCC2CCCCC21; Oic = O=C(O)[C@@H]1C[C@@H]2CCCC[C@@H]2N1; Tic = O=C(O)[C@@H]1Cc2ccccc2CN1; dTic = O=C(O)[C@H]1Cc2ccccc2CN1; GABA = NCCCC(=O)O; βAla = NCCC(=O)O

As for `CC(=O)NCC(=O)N[C@@H](Cc1ccccc1)C(=O)N1Cc2ccccc2C[C@H]1C(=O)N1[C@H](C(=O)NCC(=O)N[C@@H](CCCCN)C(=O)N2Cc3ccccc3C[C@H]2C(=O)N2[C@H](C(=O)NCC(=O)N[C@@H](Cc3ccccc3)C(=O)N3Cc4ccccc4C[C@H]3C(=O)N3[C@H](C(=O)NCC(=O)N[C@@H](CCCCN)C(=O)N4Cc5ccccc5C[C@H]4C(=O)N[C@@H](CCCCN)C(=O)N[C@@H](CCCCN)C(=O)N[C@@H](CCCCN)C(=O)N[C@@H](CCCCN)C(N)=O)C[C@@H]4CCCC[C@@H]43)C[C@@H]3CCCC[C@@H]32)C[C@@H]2CCCC[C@@H]21` (Ac-GF[Tic][Oic]GK[Tic][Oic]GF[Tic][Oic]GK[Tic]KKKK-NH2), the Activity result in data set [1], in data set [2] and in data set [4] was “Toxic” each time. Besides, in data set [3], the hemolysis at 100 µM worked out at 14%.

`CC(=O)NCCC(=O)N[C@@H](Cc1ccccc1)C(=O)N1Cc2ccccc2C[C@H]1C(=O)N1CC2CCCCC2[C@H]1C(=O)NCCC(=O)N[C@@H](CCCCN)C(=O)N1Cc2ccccc2C[C@H]1C(=O)N1CC2CCCCC2[C@H]1C(=O)NCCC(=O)N[C@@H](Cc1ccccc1)C(=O)N1Cc2ccccc2C[C@@H]1C(=O)N1CC2CCCCC2[C@H]1C(=O)NCCC(=O)N[C@@H](CCCCN)C(=O)N1Cc2ccccc2C[C@H]1C(=O)N[C@@H](CCCCN)C(=O)N[C@@H](CCCCN)C(=O)N[C@@H](CCCCN)C(=O)N[C@@H](CCCCN)C(N)=O` (stereo not given in full) (Ac-[βAla]F[Tic][Pro(3ξ,4ξ-(CH2)4)][βAla]K[Tic][Pro(3ξ,4ξ-(CH2)4)][βAla]F[dTic][Pro(3ξ,4ξ-(CH2)4)][βAla]K[Tic]KKKK-NH2): the MIC (in general, the lowest concentration found to suppress growth) in data set [5] was 1 µM (≈ 2.5 µg/mL); in data set [6], 10 µM (≈ 25 µg/mL); in data set [8], 10 µM (≈ 25 µg/mL); in data set [9] it was 1 µM (≈ 2.5 µg/mL). Moreover, the Activity entry in data set [1], in data set [2] and in data set [4] was “Toxic” each time. Further, the hemolysis at 100 µM in data set [3] came to 24.4%. In addition, in [7], the hemolysis at 25 µM is 7.4%.

Take `CC(=O)NCCCC(=O)N[C@@H](Cc1ccccc1)C(=O)N1Cc2ccccc2C[C@H]1C(=O)N1[C@H](C(=O)NCCCC(=O)N[C@@H](CCCCN)C(=O)N2Cc3ccccc3C[C@H]2C(=O)N2[C@H](C(=O)NCCCC(=O)N[C@@H](Cc3ccccc3)C(=O)N3Cc4ccccc4C[C@H]3C(=O)N3[C@H](C(=O)NCCCC(=O)N[C@@H](CCCCN)C(=O)N4Cc5ccccc5C[C@H]4C(=O)N[C@@H](CCCCN)C(=O)N[C@@H](CCCCN)C(=O)N[C@@H](CCCCN)C(=O)N[C@@H](CCCCN)C(N)=O)C[C@@H]4CCCC[C@@H]43)C[C@@H]3CCCC[C@@H]32)C[C@@H]2CCCC[C@@H]21` (Ac-[GABA]F[Tic][Oic][GABA]K[Tic][Oic][GABA]F[Tic][Oic][GABA]K[Tic]KKKK-NH2): the Activity in data set [10] was 54.1%; in data set [11], 39.7%; in data set [12] it was 79%; in data set [13], 64.9%; in [14], 72.7%. For the same compound, the minimal inhibitory concentration (MIC) in [5] was 10 µM (≈ 25.5 µg/mL); in data set [6], 100 µM (≈ 255 µg/mL); in data set [8] it was 10 µM (≈ 25.5 µg/mL); in [9], 1 µM (≈ 2.55 µg/mL). For the same compound, in data set [15], the CT50 stood at 5.7 days.

On to `CC[C@H](C)[C@H](NC(=O)[C@H](CCC(=O)O)NC(=O)CNC(=O)[C@@H](NC(=O)[C@H](Cc1ccccc1)NC(=O)[C@H](C)NC(=O)[C@H](CCCCN)NC(=O)CNC(=O)[C@H](Cc1ccccc1)NC(=O)[C@H](CCCCN)NC(=O)CNC(=O)[C@H](C)NC(=O)[C@H](CO)NC(=O)[C@H](Cc1cnc[nH]1)NC(=O)[C@H](CC(C)C)NC(=O)[C@H](Cc1ccccc1)NC(=O)[C@H](CCCCN)NC(=O)CNC(=O)[C@H](NC(=O)CN)[C@@H](C)CC)C(C)C)C(=O)N[C@@H](CCSC)C(=O)N[C@@H](CCCCN)C(=O)N[C@@H](CO)C(N)=O`, for which the outcome in data set [16] and in data set [17] was inactive.

For the origin of these results see ChEMBL document CHEMBL1145395, “De novo design of selective antibiotic peptides by incorporation of unnatural amino acids” (J Med Chem, 2007).
